Measured values published in US20110230478A1 (Bayer ScienceCrop AG, priority 2008, published 2011).

experiment: logP by HPLC on reversed-phase columns (C 18), EEC Directive 79/831 Annex V.A8; assay type: physicochemical; settings: LC-MS, pH 2.7, 0.1% aqueous formic acid and acetonitrile

SMILES | logP [b]
COCC(C)Nc1nc(Nc2ccc(OC)nc2)ncc1Br (centres unmarked) [II-1] | 1.52[b]

same assay, conditions: method marker [a]; footnote not given

SMILES | logP
CCC(C)N(C)c1nc(Nc2ccccc2)ncc1Cl (centres unmarked) [Example 40] | 2.85[a]
CC(=O)c1cccc(Nc2ncc(Cl)c(NC(C)C)n2)c1.Cl [Example 50] | 1.79[a]
CC(C)N(C)c1nc(Nc2cccc(S(=O)(=O)N(C)C)c2)ncc1Cl [Example 43] | 2.96[a]
CC(C)Nc1nc(Nc2cccc(S(=O)(=O)N(C)C)c2)ncc1Cl [Example 47] | 2.08[a]
CCC(C)N(C)c1nc(Nc2cccc(C(C)=O)c2)ncc1Cl.Cl (centres unmarked) [Example 41] | 2.88[a]
COCCNc1nc(Nc2cc(OC)c(OC)c(OC)c2)ncc1Cl [Example 1] | 1.45[a];
COCCNc1nc(Nc2ccccc2)ncc1Cl [Example 3] | 1.41[a]
COCC(C)Nc1nc(Nc2ccc(C(C)C)cc2)ncc1Cl (centres unmarked) [Example 9] | 2.38[a]
CN(C)c1nc(Nc2ccccc2)ncc1Cl [Example 33] | 1.78[a];
CCC(CO)Nc1nc(Nc2cc(OC)cc(OC)c2)ncc1Cl (centres unmarked) [Example 19] | 1.64[a]
COCC(C)Nc1nc(Nc2ccc(S(=O)(=O)N3CCOCC3)cc2)ncc1Cl (centres unmarked) [Example 63] | 2.18[a]
COCC(C)Nc1nc(Nc2cccc(C(C)=O)c2)ncc1Cl (centres unmarked) [Example 15] | 1.72[a]
CCN(CC)c1ccc(Nc2ncc(Cl)c(NC(C)COC)n2)cc1 (centres unmarked) [Example 13] | 1.16[a]
COCCNc1nc(Nc2ccc(S(=O)(=O)N(C)C)cc2)ncc1Cl [Example 6] | 1.9[a];

same assay, conditions: method marker [b] (compound 257: pH2.7)

SMILES | logP
CC(C)Nc1nc(Nc2cccc(CS(=O)(=O)N(C)C)c2)ncc1Cl [Example 250] | 1.69[b]
CSc1cccc(Nc2ncc(Cl)c(NCC(C)C)n2)c1 [Example 283] | 2.69[b]
COc1cc(Nc2ncc(Cl)c(NC3CCCCC3)n2)cc(OC)c1OC [Example 261] | 2.26[b]
CCCC(C)Nc1nc(Nc2ccccc2)ncc1Cl (centres unmarked) [Example 274] | 2.41[b]
COC(C)C(C)Nc1nc(Nc2ccccc2)ncc1Cl (centres unmarked) [Example 295] | 2.04[b]
C=CCN(C)c1nc(Nc2ccccc2)ncc1Cl [Example 271] | 2.66[b]
Brc1cnc(Nc2ccccc2)nc1NC1CCCC1 [Example 253] | 2.47[b]
CCN(c1nc(Nc2ccccc2)ncc1Cl)C(C)C [Example 269] | 3[b]
CCC(CC)Nc1nc(Nc2ccccc2)ncc1Cl [Example 275] | 2.34[b]
CC(C)(C)CNc1nc(Nc2ccccc2)ncc1Cl [Example 273] | 2.48[b]
CC(C)Nc1nc(Nc2cccc(CS(=O)(=O)NC(C)c3ccccc3)c2)ncc1Cl (centres unmarked) [Example 248] | 2.32[b]
CSc1cccc(Nc2ncc(Cl)c(NC3CCCC3)n2)c1 [Example 256] | 2.93[b]
CCC(=O)N(C)c1cccc(Nc2ncc(Cl)c(NC(C)C)n2)c1 [Example 290] | 1.76[b]
CCCN(C)c1nc(Nc2ccccc2)ncc1Cl [Example 272] | 2.55[b]
CC(Nc1nc(Nc2ccccc2)ncc1Cl)[Si](C)(C)C (centres unmarked) [Example 291] | 2.66[b]
CC(C)CNc1nc(Nc2ccccc2)ncc1Cl [Example 279] | 2.02[b]
CCC(C)Nc1nc(Nc2ccccc2)ncc1Cl (centres unmarked) [Example 296] | 2.05[b]
CCCCCNc1nc(Nc2ccccc2)ncc1Cl [Example 278] | 2.41[b]

same assay, conditions: method marker [b]; footnote not given; compound 68 value matches logP (pH 2.3)

SMILES | logP
COCC(C)Nc1nc(Nc2ccc(C(=O)OC)c(Cl)c2)ncc1Cl (centres unmarked) [Example 95] | 2.95[b]
COCC(C)Nc1nc(Nc2ccc(C(=O)CC#N)cc2)ncc1Cl (centres unmarked) [Example 102] | 2.09[b]
COCC(C)Nc1nc(Nc2ccc(-c3cscn3)cc2)ncc1Br (centres unmarked) [Example 112] | 1.99[b]
COCC(C)Nc1nc(Nc2ccc3c(c2)CCN3C(C)=O)ncc1Cl (centres unmarked) [Example 107] | 1.48[b]
COCC(C)Nc1nc(Nc2ccc(OC)c(OC)c2)ncc1Cl (centres unmarked) [Example 84] | 1.46[b]
COCC(C)Nc1nc(Nc2cccc(C#N)c2)ncc1Cl (centres unmarked) [Example 83] | 2.11[b]
COCC(C)Nc1nc(Nc2ccc(F)cc2F)ncc1Cl (centres unmarked) [Example 81] | 2.02[b]
COCC(C)Nc1nc(Nc2ccc(F)cc2)ncc1Cl (centres unmarked) [Example 69] | 1.8[b]
CSCCNc1nc(Nc2ccccc2)ncc1C#N [Example 67] | 2.6[b]
COCC(C)Nc1nc(Nc2cccc(SC)c2)ncc1Br (centres unmarked) [Example 77] | 2.3[b]
COCC(C)Nc1nc(Nc2ccc(Cl)c(S(C)(=O)=O)c2)ncc1Br (centres unmarked) [Example 76] | 2.23[b]
COCC(C)Nc1nc(Nc2cccc(SC)c2)ncc1Cl (centres unmarked) [Example 101] | 2.13[b]
COCCNc1nc(Nc2cc(OC)c(OC)c(OC)c2)ncc1Cl [Example 1] | 1.45[b]
COCC(C)Nc1nc(Nc2cc(OC)c(OC)c(OC)c2)ncc1C(F)(F)F (centres unmarked) [Example 24] | 2.46[b]
COCC(C)Nc1nc(Nc2ccc3oc(=O)sc3c2)ncc1Cl (centres unmarked) [Example 106] | 2.11[b]
COCC(C)Nc1nc(Nc2cccc(CC(=O)OC)c2)ncc1Br (centres unmarked) [Example 113] | 1.87[b]
COCC(C)Nc1nc(Nc2ccc(CC(=O)OC)cc2)ncc1Cl (centres unmarked) [Example 91] | 1.71[b]
COCC(C)Nc1nc(Nc2ccc3c(c2)CCN3C(C)=O)ncc1Br (centres unmarked) [Example 79] | 1.55[b]
CN(C)c1nc(Nc2ccccc2)ncc1Cl [Example 33] | 1.73[b]
COCC(C)Nc1nc(Nc2ccc(Cl)c(S(C)(=O)=O)c2)ncc1Cl (centres unmarked) [Example 100] | 2.09[b]
CCOc1cccc(Nc2ncc(Br)c(NC(C)COC)n2)c1 (centres unmarked) [Example 116] | 2.18[b]
COCCNc1nc(Nc2ccc(S(=O)(=O)N(C)C)cc2)ncc1Cl [Example 6] | 1.9[b]

same assay, conditions: method marker [c]

SMILES | logP
CC(C)Nc1nc(Nc2cccc(CS(=O)(=O)N(C)C)c2)ncc1Cl [Example 250] | 2.85[c];
COC(C)C(C)Nc1nc(Nc2ccccc2)ncc1Cl (centres unmarked) [Example 295] | 3.64[c];
C=CCN(C)c1nc(Nc2ccccc2)ncc1Cl [Example 271] | 4.03[c];
CC(C)Nc1nc(Nc2cccc(CS(=O)(=O)NC(C)c3ccccc3)c2)ncc1Cl (centres unmarked) [Example 248] | 3.57[c];
CCC(=O)N(C)c1cccc(Nc2ncc(Cl)c(NC(C)C)n2)c1 [Example 290] | 2.89[c];
CCCN(C)c1nc(Nc2ccccc2)ncc1Cl [Example 272] | 4.35[c];

same assay, conditions: pH 2.3, 0.1% aqueous phosphoric acid and acetonitrile

SMILES | logP [a]
COCC(C)Nc1nc(Nc2ccc(OC)nc2)ncc1Br (centres unmarked) [II-1] | 1.53[a];

same assay, conditions: pH 2.3, logP [a]

SMILES | chromatographic logP
COCC(C)Nc1nc(Cl)ncc1Br (centres unmarked) [Example V-2, 5-bromo-2-chloro-N-(3-methoxypropan-2-yl)pyrimidine-4-amine] | 2.26

same assay, conditions: reversed-phase HPLC column (C 18), pH 2.3, pH 2.3, 0.1% aqueous phosphoric acid and acetonitrile; read-out: logP [a]

SMILES | chromatographic logP
C=CCN(C)c1nc(Cl)ncc1Cl [Example V-33, 2,5-dichloro-N-methyl-N-(prop-2-en-1-yl)pyrimidine-4-amine] | 2.98
CCC(C)N(C)c1nc(Cl)ncc1Cl (centres unmarked) [Example V-15, N-(butan-2-yl)-2,5-dichloro-N-methylpyrimidine-4-amine] | 3.62
CC(C)CN(C)c1nc(Cl)ncc1Cl [Example V-26, 2,5-dichloro-N-methyl-N-(2-methylpropyl)pyrimidine-4-amine] | 3.78
CC(C)(C)Nc1nc(Cl)ncc1Cl [Example V-17, N-t-butyl-2,5-dichloropyrimidine-4-amine] | 3.22
O=[N+]([O-])c1cccc(CS(=O)(=O)NCc2ccccc2)c1 [IV-4, N-(benzyl)-1-(3-nitrophenyl)methanesulphonamide] | 2.43
CCCC(C)Nc1nc(Cl)ncc1Cl (centres unmarked) [Example V-27, 2,5-dichloro-N-(pent-2-yl)pyrimidine-4-amine] | 3.47

same assay, conditions: reversed-phase HPLC column (C 18), pH 2.7, LC-MS, pH 2.7, 0.1% aqueous formic acid and acetonitrile; read-out: logP [b]

SMILES | chromatographic logP
CC(C)c1cccc(Nc2ncc(C(F)(F)F)c(NC3CCCC3)n2)c1 [Example 257, N^4-Cyclopentyl-N^2-[3-(propan-2-yl)phenyl]-5-(trifluoromethyl)pyrimidine-2,4-diamine] | 5.08

same assay, conditions: reversed-phase HPLC column (C 18), pH 2.7, method marker [b] (compound 257: pH2.7); read-out: logP

SMILES | chromatographic logP
CC(C)c1cccc(Nc2ncc(C(F)(F)F)c(NC3CCCC3)n2)c1 [Example 257, N^4-Cyclopentyl-N^2-[3-(propan-2-yl)phenyl]-5-(trifluoromethyl)pyrimidine-2,4-diamine] | 5.08

same assay, conditions: values marked [a]; pH 2.3

SMILES | logP
CSc1cccc(Nc2ncc(Cl)c(NCC#N)n2)c1 [Example 221] | 2.27[a]
N#CCNc1nc(Nc2ccccc2)ncc1Cl [Example 220] | 1.62[a];
COCC(C(C)C)N(C)c1nc(Nc2ccccc2)ncc1Br (centres unmarked) [Example 231] | 2.47[a]

same assay, conditions: values marked [b]; footnote not given

SMILES | logP
COCC(C)Nc1nc(Nc2ccc(N(C)C(=O)C(C)(C)C)cc2)ncc1Cl (centres unmarked) [Example 163] | 1.87[b]
COCC(C)Nc1nc(Nc2ccc(NC(C)=O)c(OC)c2)ncc1Cl (racemic) [Example 140] | 1.38[b]
CNC(=O)c1ccc(Nc2ncc(Br)c(NC(C)COC)n2)cc1 (racemic) [Example 127] | 1.46[b]
CC(C)Nc1nc(Nc2ccc(S(C)(=O)=O)cc2)ncc1Cl [Example 186] | 1.86[b]
CC(C)Nc1nc(Nc2cccc(NC(=O)C(C)(C)C)c2)ncc1Cl [Example 197] | 1.91[b]
COCC(C)Nc1nc(Nc2ccc3sc(C)nc3c2)ncc1Br (centres unmarked) [Example 122] | 1.87[b]
CC(C)Nc1nc(Nc2ccc(NC(=O)C(F)(F)F)cc2)ncc1Cl [Example 193] | 1.93[b]
FC(F)(F)OCCNc1nc(Nc2ccccc2)ncc1Cl [Example 177] | 2.26[b]
COCC(C)Nc1nc(Nc2ccc(NC(C)=O)c(OC)c2)ncc1Br (racemic) [Example 125] | 1.46[b]
CC(C)Nc1nc(Nc2ccc3[nH]c(=O)oc3c2)ncc1Cl [Example 205] | 1.44[b]
CC(=O)N(C)c1ccc(Nc2ncc(Cl)c(NC(C)C)n2)cc1 [Example 192] | 1.51[b]
CCN(C)c1nc(Nc2cccc(SC)c2)ncc1Cl [Example 239] | 2.99[b]
COCC(C)Nc1nc(Nc2cccc(NC(=O)OC)c2)ncc1Cl (centres unmarked) [Example 153] | 1.59[b]
CCNc1nc(Nc2ccccc2)ncc1Cl [Example 240] | 1.38[b]
COCC(C)Nc1nc(Nc2ccc(C(=O)CC#N)cc2)ncc1Br (centres unmarked) [Example 121] | 2.23[b]
COCC(C)Nc1nc(Nc2cccc(NC(=O)C(C)C)c2)ncc1Cl (centres unmarked) [Example 156] | 1.68[b]
CC(=O)c1ccc(Nc2ncc(Cl)c(NC(C)C)n2)cc1 [Example 200] | 2.06[b]

same assay, conditions: values marked [c]; footnote not given

SMILES | logP
N#CCNc1nc(Nc2ccccc2)ncc1Cl [Example 220] | 2.2[c]
CCN(C)c1nc(Nc2cccc(SC)c2)ncc1Cl [Example 239] | 4.32[c];
CCNc1nc(Nc2ccccc2)ncc1Cl [Example 240] | 3.03[c];

same assay, conditions: values marked [d]; footnote not given

SMILES | logP
CC(C)CC(C)N(C)c1nc(Nc2ccccc2)ncc1Br (centres unmarked) [Example 233] | 3.39[d]
